Article PMC4264749, “Phlebotomy Treatment for Elimination of Perfluoroalkyl Acids in a Highly Exposed Family: A Retrospective Case-Series” (PLoS ONE, 2014)
Like-named read-outs stand apart in the source and are kept apart here.

Experiments:
[1] = design: method as in earlier work; details: cited from earlier work
[2] = design: method as in PMID 23980546; details: urinary excretion, China, cited from earlier work
[3] = Serum PFAA concentrations in family members during intermittent phlebotomy (HPLC-MS/MS); assay type: in vivo, human; details: for Serum concentration before treatment: before phlebotomy
Text: After receiving informed consent, intermittent phlebotomy was undertaken at an overall rate (Table 2) that was equal to or less than the maximum rate of what is done for routine blood donations at the Canadian Blood Services: ∼500 ccs of whole blood every 56 days. Frequency and timing of blood removal was not consistent between family members because of their personal availability, success at each time of venesection, and compliance of each participant. […] Mineral supplementation was discussed and was taken by each participant.
All serum samples were submitted to ALS Laboratories (Edmonton, AB) for quantitative analysis of PFAAs (see Supporting Information, S1 Table). Samples were extracted by solid phase extraction and concentrations of PFHxS, PFOS, and PFOA were determined using high performance liquid chromatography/tandem mass spectrometry. Formic acid (0.1 M) along with a mixture of isotopically labeled PFAAs (Wellington Laboratories, Guelph, Ontario) were added to 1.0 mL of serum. The mixture was vortexed, sonicated, and subjected to solid phase extraction. The extract was concentrated to 100 uL and an instrument performance internal standard was added along with 200 uL of 90% 20 mM aqueous acetic acid/10% methanol. Procedural blanks were run with each set of samples, and method limits of quantification (LOQ) were 0.5 ng/mL for each analyte. For the few PFAA levels that fell below this LOQ (shown as hollow circles in Figs. 1–3), LOQ/√2 (i.e. 0.35 ng/mL) was substituted for purposes of data analysis. PFHxS, PFOS, and PFOA levels in all participating family members were >LOQ throughout the intervention except for 3 PFOS measurements out of 16 total measurements in the 3rd child and one PFOA measurement out of 9 total measurements in the […]. Written informed consent was given by participants (or parents in the case of children) for their clinical records to be used in this study.

[4] = design: method as in PMID 17805419; details: cited from earlier work
[5] = Apparent elimination half-life (HLapp) and phlebotomy efficiency coefficient in treated family members; assay type: in vivo, human; details: family members with regular phlebotomy, except parent
Text: To evaluate the effect of phlebotomy, versus the expected rate of intrinsic elimination, we graphically and statistically compared the observed decreasing trends in each family member (fitted to a simple exponential decay model) with reference population elimination kinetics. Specifically, for the reference population of occupationally exposed retirees, we considered: i) the 95% confidence interval of the geometric mean elimination rate for each PFAA, and ii) the fastest individual rate of elimination rate among the reference population. For comparative purposes, the concentration of each PFAA in serum on the first day of the intervention was taken as time zero, and the models were forced through this starting point.
One metric that was calculated to compare the efficiency of the phlebotomy for removal of different PFAAs in each family member was termed the phlebotomy efficiency coefficient (EC). This was based on the subtractive difference between HLapp (yrs) in each treated family member and the geometric mean HLin (yrs) of the reference population according to Equation 1 . [drawing 1] (1)

O=C(O)C(F)(F)C(F)(F)C(F)(F)C(F)(F)C(F)(F)C(F)(F)C(F)(F)F [PFOA, perfluorooctanoic acid]
95th percentile of serum concentration among Canadians ([1]; 2009–2011): 5 ng/mL | median serum concentration among Canadians [1]: 2.7 ng/mL | HLapp ([2]; males and post-menopausal females): 2.6 years | HLapp ([2]; reproductive-aged females): 2.1 years | Serum concentration before treatment ([3]; 1st Child): 4.7 ng/mL | Serum concentration ([3]; 1st Child, sampling date 2009.10.12): 3.5 ng/mL | Serum concentration ([3]; 1st Child, sampling date 2009.12.24): 4.4 ng/mL | Serum concentration ([3]; 1st Child, sampling date 2009.6.9): 4.7 ng/mL | Serum concentration ([3]; 1st Child, sampling date 2009.9.9): 3.9 ng/mL | Serum concentration ([3]; 1st Child, sampling date 2010.10.14): 2.8 ng/mL | Serum concentration ([3]; 1st Child, sampling date 2010.1.17): 4.0 ng/mL | Serum concentration ([3]; 1st Child, sampling date 2010.2.11): 2.0 ng/mL | Serum concentration ([3]; 1st Child, sampling date 2010.4.14): 3.8 ng/mL | Serum concentration ([3]; 1st Child, sampling date 2011.12.5): 1.3 ng/mL | Serum concentration ([3]; 1st Child, sampling date 2011.5.17, LOD=0.5ng/mL): 1.8 ng/mL | Serum concentration ([3]; 1st Child, sampling date 2011.8.12, LOD=0.5ng/mL): 2.7 ng/mL | Serum concentration ([3]; 1st Child, sampling date 2012.12.28, LOD=0.5ng/mL): 1.5 ng/mL | Serum concentration ([3]; 1st Child, sampling date 2012.4.24): 2.3 ng/mL | Serum concentration ([3]; 1st Child, sampling date 2012.8.21): 1.7 ng/mL | Serum concentration ([3]; 1st Child, sampling date 2013.3.30): 1.5 ng/mL | Serum concentration ([3]; 1st Child, sampling date 2013.7.30): 1.2 ng/mL | Serum concentration before treatment ([3]; 2nd Child): 8.7 ng/mL | Serum concentration ([3]; 2nd Child, sampling date 2009.10.24): 5.0 ng/mL | Serum concentration ([3]; 2nd Child, sampling date 2009.6.6): 8.7 ng/mL | Serum concentration ([3]; 2nd Child, sampling date 2009.7.2): 7.1 ng/mL | Serum concentration ([3]; 2nd Child, sampling date 2009.7.30): 9.2 ng/mL | Serum concentration ([3]; 2nd Child, sampling date 2009.8.24): 7.4 ng/mL | Serum concentration ([3]; 2nd Child, sampling date 2009.9.27): 4.5 ng/mL | Serum concentration ([3]; 2nd Child, sampling date 2010.1.3): 4.3 ng/mL | Serum concentration ([3]; 2nd Child, sampling date 2010.2.15): 4.9 ng/mL | Serum concentration ([3]; 2nd Child, sampling date 2011.10.2): 3.7 ng/mL | Serum concentration ([3]; 2nd Child, sampling date 2011.12.24): 3.8 ng/mL | Serum concentration ([3]; 2nd Child, sampling date 2011.4.27): 3.7 ng/mL | Serum concentration ([3]; 2nd Child, sampling date 2011.8.14): 3.6 ng/mL | Serum concentration ([3]; 2nd Child, sampling date 2012.12.24): 3.0 ng/mL | Serum concentration ([3]; 2nd Child, sampling date 2012.4.6): 3.0 ng/mL | Serum concentration ([3]; 2nd Child, sampling date 2013.5.11.): 2.1 ng/mL | Serum concentration ([3]; 2nd Child, sampling date 2013.7.15): 1.9 ng/mL | Serum concentration before treatment ([3]; 3rd Child): 8.2 ng/mL | Serum concentration ([3]; 3rd Child, sampling date 2010.3.12): 6.6 ng/mL | Serum concentration ([3]; 3rd Child, sampling date 2010.5.23): 5.3 ng/mL | Serum concentration ([3]; 3rd Child, sampling date 2011.1.6): 4.2 ng/mL | Serum concentration ([3]; 3rd Child, sampling date 2011.11.26): 2.2 ng/mL | Serum concentration ([3]; 3rd Child, sampling date 2011.2.24): 3.3 ng/mL | Serum concentration ([3]; 3rd Child, sampling date 2011.4.30): 3.0 ng/mL | Serum concentration ([3]; 3rd Child, sampling date 2011.6.13): 3.2 ng/mL | Serum concentration ([3]; 3rd Child, sampling date 2011.9.27): 3.0 ng/mL | Serum concentration ([3]; 3rd Child, sampling date 2012.10.16): 2.1 ng/mL | Serum concentration ([3]; 3rd Child, sampling date 2012.1.8): 2.9 ng/mL | Serum concentration ([3]; 3rd Child, sampling date 2012.12.9): 2.5 ng/mL | Serum concentration ([3]; 3rd Child, sampling date 2012.3.4): 3.2 ng/mL | Serum concentration ([3]; 3rd Child, sampling date 2012.4.28): 3.2 ng/mL | Serum concentration ([3]; 3rd Child, sampling date 2013.2.5): 2.2 ng/mL | Serum concentration ([3]; 3rd Child, sampling date 2013.3.30): 2.2 ng/mL | Serum concentration before treatment ([3]; 4th Child): 6.8 ng/mL | Serum concentration before treatment ([3]; Average of 6 family members): 5.7 ng/mL | Serum concentration before treatment ([3]; Parent one): 3.0 ng/mL | Serum concentration ([3]; Parent one, sampling date 2009.10.11): 1.6 ng/mL | Serum concentration ([3]; Parent one, sampling date 2009.10.12): 2.1 ng/mL | Serum concentration ([3]; Parent one, sampling date 2009.11.12): 2.0 ng/mL | Serum concentration ([3]; Parent one, sampling date 2009.12.14): 2.1 ng/mL | Serum concentration ([3]; Parent one, sampling date 2009.2.2): 3.0 ng/mL | Serum concentration ([3]; Parent one, sampling date 2009.5.18): 2.5 ng/mL | Serum concentration ([3]; Parent one, sampling date 2009.6.1): 3.1 ng/mL | Serum concentration ([3]; Parent one, sampling date 2009.7.4): 2.6 ng/mL | Serum concentration ([3]; Parent one, sampling date 2009.9.1): 2.3 ng/mL | Serum concentration ([3]; Parent one, sampling date 2010.10.10): 2.2 ng/mL | Serum concentration ([3]; Parent one, sampling date 2010.1.17): 2.0 ng/mL | Serum concentration ([3]; Parent one, sampling date 2010.3.13): 2.6 ng/mL | Serum concentration ([3]; Parent one, sampling date 2011.1.6): 1.6 ng/mL | Serum concentration ([3]; Parent one, sampling date 2011.11.26): 0.9 ng/mL | Serum concentration ([3]; Parent one, sampling date 2011.2.24): 1.7 ng/mL | Serum concentration ([3]; Parent one, sampling date 2011.4.30): 1.3 ng/mL | Serum concentration ([3]; Parent one, sampling date 2011.6.22): 1.5 ng/mL | Serum concentration ([3]; Parent one, sampling date 2011.8.4): 1.4 ng/mL | Serum concentration ([3]; Parent one, sampling date 2011.9.27): 1.2 ng/mL | Serum concentration ([3]; Parent one, sampling date 2012..12.28): 1.0 ng/mL | Serum concentration ([3]; Parent one, sampling date 2012.1.14): 1.6 ng/mL | Serum concentration ([3]; Parent one, sampling date 2012.11.1): 1.2 ng/mL | Serum concentration ([3]; Parent one, sampling date 2012.3.4): 1.3 ng/mL | Serum concentration ([3]; Parent one, sampling date 2012.4.29): 1.2 ng/mL | Serum concentration ([3]; Parent one, sampling date 2012.7.8): 1.0 ng/mL | Serum concentration ([3]; Parent one, sampling date 2012.8.21): 1.2 ng/mL | Serum concentration ([3]; Parent one, sampling date 2013.10.27): 1.2 ng/mL | Serum concentration ([3]; Parent one, sampling date 2013.2.18): 1.2 ng/mL | Serum concentration ([3]; Parent one, sampling date 2013.3.30): 1.1 ng/mL | Serum concentration ([3]; Parent one, sampling date 2013.5.11): 1.0 ng/mL | Serum concentration ([3]; Parent one, sampling date 2013.7.15): 1.0 ng/mL | Serum concentration ([3]; Parent one, sampling date 2013.9.8): 0.9 ng/mL | Serum concentration before treatment ([3]; Parent two): 2.5 ng/mL | Serum concentration ([3]; Parent two, sampling date 2009.6.1): 2.5 ng/mL | Serum concentration ([3]; Parent two, sampling date 2009.7.7): 1.8 ng/mL | Serum concentration ([3]; Parent two, sampling date 2009.8.24): 1.6 ng/mL | Serum concentration ([3]; Parent two, sampling date 2010.1.3): 1.3 ng/mL | Serum concentration ([3]; Parent two, sampling date 2012.3.13): 1.3 ng/mL | Serum concentration ([3]; Parent two, sampling date 2013.1.1): 1.0 ng/mL | Serum concentration ([3]; Parent two, sampling date 2013.10.6): 0.9 ng/mL | Serum concentration ([3]; Parent two, sampling date 2013.6.22): 1.1 ng/mL | HLin of fastest eliminator in the reference population ([4]; reference population of occupationally exposed retirees (26 individuals)): 1.5 yrs | 95% confidence interval of the geometric mean HLin ([4]; reference population of occupationally exposed retirees): 3.0–4.1 yrs | HLin, 95% confidence interval ([4]; serum, retirees >55 yrs, previously occupationally exposed): 3.1–4.4 yrs | HLapp compared with geometric mean HLin of reference population [5]: significantly shorter
